Data published in paper doi:10.1101/2025.10.30.685691v1 (biorxiv, 2025).

What was measured:
[1] = target: BaPDH (WT-BaPDH, full-length ACT-containing prephenate dehydrogenase) (Bacillus anthracis, UniProt Q81P63); experiment: biochemical
[2] = test system: O=C(O)C(=O)CC1(C(=O)O)C=CC(O)C=C1; experiment: purified protein; conditions: pH 7.5

Chain of BaPDH (WT-BaPDH, full-length ACT-containing prephenate dehydrogenase) (Q81P63 1-378 limits assumed): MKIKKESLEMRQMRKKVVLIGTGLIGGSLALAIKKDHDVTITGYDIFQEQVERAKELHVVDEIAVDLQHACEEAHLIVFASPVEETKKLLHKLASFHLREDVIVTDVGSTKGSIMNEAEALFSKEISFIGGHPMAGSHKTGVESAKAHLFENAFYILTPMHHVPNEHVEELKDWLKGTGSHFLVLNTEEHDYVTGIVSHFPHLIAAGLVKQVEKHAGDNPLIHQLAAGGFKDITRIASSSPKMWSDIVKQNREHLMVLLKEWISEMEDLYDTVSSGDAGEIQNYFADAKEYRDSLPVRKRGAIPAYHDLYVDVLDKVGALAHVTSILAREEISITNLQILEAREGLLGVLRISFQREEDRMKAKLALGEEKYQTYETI

N[C@@H](Cc1ccc(O)cc1)C(=O)O [tyrosine]
Ki [1]: 1.5 ± 0.2 µM

BaPDH (WT-BaPDH, full-length ACT-containing prephenate dehydrogenase) (Bacillus anthracis)
Km [2]: 78 ± 10 µM
